Source: patent US20180360799A1, “Nitrofuran Derivatives That Induce Apoptosis in Breast Cancer Cells by Activating Protein Expression” (Oklahoma Medical Research Foundation, priority 2015, published 2018)

Columns and labels:
HCC-1806 cells [1] = test: Cell viability, CellTiter-Glo, HCC-1806; assay type: cell-based; conditions: Homo sapiens, HCC1806, 72 h; Table 2; cancer cell viability, 3 d treatment; read-out: HCC-1806 IC50
Protocol: (§1) Given the known functions of CHOP in ER stress-induced apoptosis^16, 17 and in regulating cancer cell death,^6, 19, 20 the inventor investigated whether compound 1 affects the viability of TNBC cells. Three human TNBC cell lines, HCC-1806, HCC-1143, and HCC-38, were treated with doses of 1 ranging from 0.125 μM to 20 μM and their viability was assessed using the CellTiter-Glo assay, which measures intracellular ATP levels.
(§2) HCC-1806, HCC-1143, or HCC-38 cells were seeded at 3×10^3 cells/well in a 384-well plate and treated with compounds at the indicated concentrations. After 3 d treatment, the medium was aspirated and 20 μL/well of CellTiter-Glo reagent was added. Cell viability was measured with an EnVision multilabel plate reader. The IC50 value for cell viability of each compound was calculated with GraphPad Prism (La Jolla, Calif., US).

HCC-1143 cells = test: Cell viability, CellTiter-Glo, HCC-1143; assay type: cell-based; conditions: Homo sapiens, HCC1143, 72 h; Table 2; cancer cell viability, 3 d treatment; read-out: HCC-1143 IC50
Protocol: as §1, §2

caspase-3 = test: Caspase-3 cleavage by Western blotting in HCC-1806 cells; assay type: cell-based, human; conditions: HCC-1806, 10 μM, at 8 h and 24 h
Protocol: (§3) FIG. 2A is an image showing apoptosis of HCC-1806 cells after treatment with a 5-nitrofuran-2-amide derivative compound 3d (above). Cells were treated with 3d (10 μM) for the indicated times, and cleavage of caspase-3 was determined by Western blotting. α-Tubulin was used as a loading control. The data shown are representative of 3 independent studies. FIGS. 2B and 2C are live-cell phase-contrast images (magnification 10×) showing treatment with DMSO and (10 μM) 5-nitrofuran-2-amide derivative compound 3d respectively for 24 h. To determine whether the reduction in TNBC cell viability by the 5-nitrofuran-2-amide derivatives was due to the induction of apoptosis, the inventor analyzed cleavage of caspase-3, a critical executioner of apoptosis, in HCC-1806 cells treated with compound 3d. […] To confirm this, HCC-1806 cells were cultured to near confluence and treated with 10 μM 3d or DMSO for 24 h and then imaged by live-cell phase-contrast microscopy.
HCC-1806 cells were seeded in 60-mm dishes at 8×10^5 cells/dish and treated for the indicated times. Cells were then washed with PBS and lysed with lysis buffer (Cell Signaling Technology, Danvers, Mass., US) containing EDTA and phosphatase inhibitors. Aliquots of 20 μg total protein were separated on 7% SDS-PAGE gels (Life Technologies, Carlsbad, Calif., US) and transferred to PVDF membranes. […]

HCC-1806 cells [2] = test: Live-cell phase-contrast microscopy of HCC-1806 cells; assay type: cell-based, human; conditions: near confluent HCC-1806, 10 μM, 24 h
Protocol: as §3

CHOP gene = test: CHOP mRNA by qRT-PCR in HCC-1806 cells; assay type: cell-based, human
Protocol: The results are the means of 4 replicate wells and are representative of 3 independent studies. *P<0.05 and **P<0.01 by Student's t-test compared with cells treated with DMSO (in FIG. 3A) or with 3d for 0 h (in FIG. 3B). […] The results are the means of 4 replicate wells and are representative of 3 independent studies. *P<0.05 and **P<0.01 by Student's t-test compared with cells treated with compound 3d for 0 h. […] Total RNA was extracted using TRIzol reagent (Invitrogen, Carlsbad, Calif.) according to the manufacturer's protocol, and 2 μg of total RNA was reverse transcribed using a Superscript kit (Invitrogen). Real-time PCR was performed in 96-well format using SYBR Select Master Mix (Applied Biosystems, Foster City, Calif.) with an ABI 7500 PCR system (Applied Biosystems). The primer sequences used were: Human CHOP: SEQ ID NO: 1 [NT] and SEQ ID NO: 2 [NT]. Human ATF4: SEQ ID NO: 3 [NT] and SEQ ID NO: 4 [NT]. Human XBP1: SEQ ID NO: 5 [NT] and SEQ ID NO: 6 [NT]. Human Cyclophilin A: SEQ ID NO: 7 [NT] and SEQ ID NO: 8 [NT]. Human GAPDH: SEQ ID NO: 9 [NT] and SEQ ID NO: 10 [NT].

CHOP protein = CHOP protein by Western blotting in HCC-1806 cells; assay type: cell-based, human; conditions: 10 μM, significant increases between 4 h and 24 h
Protocol: (§4) FIG. 3B is an image showing CHOP mRNA expression levels after treatment with a 5-nitrofuran-2-amide derivative. Cells were treated with compound 3d (10 μM) for the indicated times, and CHOP protein levels were analyzed by Western blotting. α-Tubulin was used as a loading control. The data shown are representative of 3 independent studies.
HCC-1806 cells were seeded in 60-mm dishes at 8×10^5 cells/dish and treated for the indicated times. Cells were then washed with PBS and lysed with lysis buffer (Cell Signaling Technology, Danvers, Mass., US) containing EDTA and phosphatase inhibitors. Aliquots of 20 μg total protein were separated on 7% SDS-PAGE gels (Life Technologies, Carlsbad, Calif., US) and transferred to PVDF membranes. The membranes were probed with primary antibodies followed by the appropriate HRP-conjugated secondary antibodies (goat anti-rabbit IgG and goat anti-mouse IgG, 1:3000; Santa Cruz Biotechnology, Santa Cruz, Calif., US). Blots were then developed. The primary antibodies and dilutions used were: CHOP (1:1000 no. MA1-250; Thermo, IL, US), cleaved caspase 3 (1:1000 no. 9661; Cell Signaling Technology), ATF4 (1:1000 no. 10835-1-AP; ProteinTech Group, IL, US), p-eIF2α (Ser51) (1:1000 no. 9721; Cell Signaling Technology), and α-tubulin (1:2000 no. SC-8035; Santa Cruz Biotechnology).

ATF4 protein = ATF4 protein by Western blotting; assay type: cell-based, human; conditions: 10 μM, indicated times
Protocol: as §4, with “3D” for “3B”, “ATF4 and p-EIF2α protein” for “CHOP mRNA expression”, “derivative compound 3d.” for “derivative.”, “ATF4 and p-eIF2a” for “CHOP”
Prolonged or severe ER stress activates CHOP expression primarily through the PERK branch of the unfolded protein response, although the IRE1α and ATF6 branches also contribute.^5, 18 The 5-nitrofuran-2-amide derivatives could induce CHOP expression by acting as an ER stressor that activates all three branches of unfolded protein response or by preferentially activating a select branch of unfolded protein response. To distinguish between these possibilities, the inventor investigated which branches of the unfolded protein response were affected by compound 3d. Activation of the PERK pathway by ER stress leads to phosphorylation of eIF2α, followed by activation of the transcription and translation of the transcription factor ATF4, a 5′-upstream ORF-containing gene, and ATF4-mediated CHOP expression.^5, 22 To determine whether the PERK pathway is involved in compound 3d-mediated CHOP induction, ATF4 expression and eIF2a phosphorylation in HCC-1806 cells by qRT-PCR and Western blotting were analyzed. […]

**Q.** Which results are given for `CC1CCN(c2ccc(NC(=O)c3ccc([N+](=O)[O-])o3)cc2)CC1` [Compound 3d]?
**A.** IC50 (HCC-1806 cells [1]): 2800 nM; IC50 (HCC-1143 cells): 2100 nM; cleavage of caspase-3 (caspase-3): increased cleavage of caspase-3 protein levels; cell death seen by phase-contrast imaging (HCC-1806 cells [2]): few cells were observed; CHOP transcription, time dependence (CHOP gene; HCC-1806, 10 μM, indicated times): increased CHOP transcription in a time-dependent fashion; CHOP mRNA levels relative to DMSO-treated cells (CHOP gene; HCC-1806, dose- and time-dependent studies): up to 9 fold; CHOP mRNA levels, dose dependence (CHOP gene; HCC-1806, indicated concentrations, 8 h): significantly increased CHOP mRNA levels in a dose-dependent manner; CHOP protein levels (CHOP protein): increased CHOP protein levels; ATF4 expression, protein (ATF4 protein): significantly increased ATF4 expression
